{"source": "patent US12697343B2", "about": "“Intravenous istaroxime for the treatment of acute heart failure” (Seismic Pharmaceuticals Operations LLC, priority 2021, dated 2026)", "system": "patients hospitalized for acute heart failure (AHF)", "experiment": "Echocardiographic parameters (tissue Doppler echocardiography), phase II trial of 24 h istaroxime infusion", "type": "in vivo, human", "conditions": "for A wave mean change from baseline / CI mean change from baseline / E wave mean change from baseline / E/A ratio mean change from baseline / E/e′ ratio mean change from baseline / EDV Index mean change from baseline / EDV mean change from baseline / ESV Index mean change from baseline / ESV mean change from baseline / IVC diameter mean change from baseline / LAA mean change from baseline / LAV mean change from baseline / LAVI mean change from baseline / LVEF mean change from baseline / PASP mean change from baseline / SVI mean change from baseline / S′ mean change from baseline / TAPSE mean change from baseline / e′ mean change from baseline: 0.5 μg/Kg/min; for E/e′ change from baseline to 24 h (primary endpoint): 0.5 μg/kg/min (cohort 1), mITT, hydrochloride", "text": "The measurement of one or more cardiac parameters disclosed herein can be measured by Echocardiography which may be performed on subjects according to international standards (see, for example, Lang R M et a I. J Am Soc Echocardiogr 2005; 18(12): 1440-63; Nagueh S F et al. Eur J Echocardiogr 2009; 10(2): 165-93; Evangelista A et a I. Eur J Echocardiogr 2008; 9(4):438-48).\nIn some embodiments, cardiac parameters can be measured as follows: • 1. Cardiac dimension measures: • a. Left ventricle end diastolic diameter (EDD): measured with M-mode echocardiography at the level of mitral valve (MV) leaflets from parasternal long axis view (PLAX) (normal range [N R]: 42-59 mm males and 39-53 mm females); • b. Left ventricle end systolic diameter (ESD): measured with M-mode echocardiography at the level of mitral valve (MV) leaflets from PLAX (N R: 25-35 mm): • c. Left ventricle end diastolic volume (EDV): measured with M-mode echocardiography at the level of mitral valve (MV) leaflets from PLAX (N R: 67-155 mL males and 56-104 mL females); • d. Left ventricle end systolic volume (ESV): measured with M-mode echocardiography at the level of mitral valve (MV) leaflets from PLAX (N R: 22-58 mL males and 19-49 mL females); • e. Left atrium diameter (LAD): measured at end-ventricular systole with M-mode echocardiography from PLAX. (N R: 30-40 mm males and 27-38 mm females) • f. Left atrium area (LAA): measured from apical four chamber view (NR: £20 cm2); and • g. Left atrium volume (LAV): derived from area-length measured from apical four chamber view (N R: 18-58 mL males and 22-52 mL females). • 2. Left ventricle diastolic function parameters: • a. E wave: measured from mitral valve pulsed wave Doppler, is the peak velocity of early filling. […] A wave: measured from mitral valve pulsed wave Doppler is the peak velocity of late atrial filling. Not evaluable in subjects with AF: • c. E wave deceleration time (EDT): measured from mitral valve pulsed wave Doppler represent the slope of the descending part of E wave; • d. E/A ratio: determines the type of diastolic filling pattern (normal E/A=1-2 and EDT=150-200 ms, abnormal relaxation E/A<1 and EDT>240 ms, pseudonormal E/A=0.8-1.5: restrictive E/A^32 and EDT <160 ms). Not evaluable in subjects with AF; • e. Ea: measured with tissue Doppler method at the lateral and septal side of the mitral annulus from apical four chamber view is the early diastolic velocity. The value has been calculated as the average between Ea lateral and Ea septal. (NR310 cm/s) (see Nagueh S F et al. Eur J Echocardiogr. 2009:10(2):165-93); • f. Aa: measured with tissue Doppler method at the lateral and septal side of the mitral annulus from apical four chamber view is the late atrial diastolic velocity. The value has been calculated as the average between Aa lateral and Aa septal. Not evaluable in subjects with AF; and • g. E/Ea ratio: this is a derived measure from E and Ea value. This is highly correlated with left ventricle filling pressure and with prognosis in subjects with HF. (NR: <13) (see Nagueh S F et al. supra). • 3. Left ventricle systolic function parameters: • a. Left ventricle ejection fraction (LVEF): measured with Simpson biplane method according to international recommendations from apical four chamber view and apical two chamber view. (NR ^355%) (see Lang R M et al. J Am Soc Echocardiogr. 2005:18(12): 1440-63); and • b. Sa: measured with tissue Doppler method at the lateral and septal side of the mitral annulus from apical four chamber view. The value has been calculated as the average between Sa lateral and Sa septal. […] Overall cardiac contraction parameters: • a. Stroke volume (SV): is a derived measure obtained with the application of Bernoulli's formula using the dimension of left ventricle outflow tract (LVOT) as diameter and LVOT time velocity integral as velocity. (NR>60 mL/beat); • b. Cardiac output (CO): is derived by the multiplication of SV× heart rate (HR) (NR: >4 L/min); • c. […]", "key": {"[1]": {"conditions": "0.5 μg/kg/min, mean ± standard deviation"}}, "note": "Counter-ions that a name gives are not always drawn.", "data": [{"smiles": "C[C@]12CCC(=NOCCN)C[C@@H]1C(=O)C[C@@H]1[C@@H]2CC[C@]2(C)C(=O)CC[C@@H]12", "note": "[Istaroxime, (E,Z)-3-((2-aminoethoxy)imino)androstane-6,17-dione hydrochloride]", "values": [{"measurement": "A wave mean change from baseline", "setting": "6 hours", "value": 1.76, "unit": "cm/s"}, {"measurement": "CI mean change from baseline", "setting": "6 hours", "value": 0.20, "unit": "l/min/m^2"}, {"measurement": "E wave mean change from baseline", "setting": "6 hours", "value": -4.35, "unit": "cm/s"}, {"measurement": "E/A ratio mean change from baseline", "setting": "6 hours", "value": "−0.28"}, {"measurement": "E/e′ ratio mean change from baseline", "setting": "6 hours", "value": "−3.48"}, {"measurement": "EDV Index mean change from baseline", "setting": "6 hours", "value": 0.85, "unit": "ml/m^2"}, {"measurement": "EDV mean change from baseline", "setting": "6 hours", "value": 1.47, "unit": "mL"}, {"measurement": "ESV Index mean change from baseline", "setting": "6 hours", "value": "−2.54", "unit": "ml/m^2"}, {"measurement": "ESV mean change from baseline", "setting": "6 hours", "value": -4.89, "unit": "mL"}, {"measurement": "IVC diameter mean change from baseline", "setting": "6 hours", "value": "−2.41", "unit": "mm"}, {"measurement": "LAA mean change from baseline", "setting": "6 hours", "value": "−0.38", "unit": "cm^2"}, {"measurement": "LAV mean change from baseline", "setting": "6 hours", "value": 0.05, "unit": "mL"}, {"measurement": "LAVI mean change from baseline", "setting": "6 hours", "value": "−0.51", "unit": "mL/m^2"}, {"measurement": "LVEF mean change from baseline", "setting": "6 hours", "value": 2.03, "unit": "%"}, {"measurement": "PASP mean change from baseline", "setting": "6 hours", "value": "−4.21", "unit": "mmHg"}, {"measurement": "SVI mean change from baseline", "setting": "6 hours", "value": 5.66, "unit": "ml/beat/m^2"}, {"measurement": "S′ mean change from baseline", "setting": "6 hours", "value": 0.63, "unit": "cm/s"}, {"measurement": "TAPSE mean change from baseline", "setting": "6 hours", "value": 0.41, "unit": "mm"}, {"measurement": "e′ mean change from baseline", "setting": "6 hours", "value": 0.63, "unit": "cm/s"}, {"measurement": "A wave mean change from baseline", "setting": "24 hours", "value": 5.13, "unit": "cm/s"}, {"measurement": "CI mean change from baseline", "setting": "24 hours", "value": 0.27, "unit": "l/min/m^2"}, {"measurement": "E wave mean change from baseline", "setting": "24 hours", "value": -8.14, "unit": "cm/s"}, {"measurement": "E/A ratio mean change from baseline", "setting": "24 hours", "value": "−0.64"}, {"measurement": "E/e′ ratio mean change from baseline", "setting": "24 hours", "value": "−4.55"}, {"measurement": "EDV Index mean change from baseline", "setting": "24 hours", "value": "−0.20", "unit": "ml/m^2"}, {"measurement": "EDV mean change from baseline", "setting": "24 hours", "value": -0.71, "unit": "mL"}, {"measurement": "ESV Index mean change from baseline", "setting": "24 hours", "value": "−3.78", "unit": "ml/m^2"}, {"measurement": "ESV mean change from baseline", "setting": "24 hours", "value": -7.11, "unit": "mL"}, {"measurement": "IVC diameter mean change from baseline", "setting": "24 hours", "value": "−4.30", "unit": "mm"}, {"measurement": "LAA mean change from baseline", "setting": "24 hours", "value": "−1.70", "unit": "cm^2"}, {"measurement": "LAV mean change from baseline", "setting": "24 hours", "value": -7.94, "unit": "mL"}, {"measurement": "LAVI mean change from baseline", "setting": "24 hours", "value": "−4.32", "unit": "mL/m^2"}, {"measurement": "LVEF mean change from baseline", "setting": "24 hours", "value": 3.03, "unit": "%"}, {"measurement": "PASP mean change from baseline", "setting": "24 hours", "value": "−10.89", "unit": "mmHg"}, {"measurement": "SVI mean change from baseline", "setting": "24 hours", "value": 5.33, "unit": "ml/beat/m^2"}, {"measurement": "S′ mean change from baseline", "setting": "24 hours", "value": 0.68, "unit": "cm/s"}, {"measurement": "TAPSE mean change from baseline", "setting": "24 hours", "value": 0.73, "unit": "mm"}, {"measurement": "e′ mean change from baseline", "setting": "24 hours", "value": 0.94, "unit": "cm/s"}, {"measurement": "A wave mean change from baseline", "setting": "48 hours", "value": -0.94, "unit": "cm/s"}, {"measurement": "CI mean change from baseline", "setting": "48 hours", "value": 0.19, "unit": "l/min/m^2"}, {"measurement": "E wave mean change from baseline", "setting": "48 hours", "value": -5.21, "unit": "cm/s"}, {"measurement": "E/A ratio mean change from baseline", "setting": "48 hours", "value": "−0.28"}, {"measurement": "E/e′ ratio mean change from baseline", "setting": "48 hours", "value": "−2.56"}, {"measurement": "EDV Index mean change from baseline", "setting": "48 hours", "value": "−0.07", "unit": "ml/m^2"}, {"measurement": "EDV mean change from baseline", "setting": "48 hours", "value": -0.59, "unit": "mL"}, {"measurement": "ESV Index mean change from baseline", "setting": "48 hours", "value": "−1.19", "unit": "ml/m^2"}, {"measurement": "ESV mean change from baseline", "setting": "48 hours", "value": -2.57, "unit": "mL"}, {"measurement": "IVC diameter mean change from baseline", "setting": "48 hours", "value": "−4.16", "unit": "mm"}, {"measurement": "LAA mean change from baseline", "setting": "48 hours", "value": "−2.01", "unit": "cm^2"}, {"measurement": "LAV mean change from baseline", "setting": "48 hours", "value": -9.17, "unit": "mL"}, {"measurement": "LAVI mean change from baseline", "setting": "48 hours", "value": "−5.01", "unit": "mL/m^2"}, {"measurement": "LVEF mean change from baseline", "setting": "48 hours", "value": 1.19, "unit": "%"}, {"measurement": "PASP mean change from baseline", "setting": "48 hours", "value": "−11.18", "unit": "mmHg"}, {"measurement": "SVI mean change from baseline", "setting": "48 hours", "value": 3.68, "unit": "ml/beat/m^2"}, {"measurement": "S′ mean change from baseline", "setting": "48 hours", "value": 0.22, "unit": "cm/s"}, {"measurement": "TAPSE mean change from baseline", "setting": "48 hours", "value": "−0.34", "unit": "mm"}, {"measurement": "e′ mean change from baseline", "setting": "48 hours", "value": 0.32, "unit": "cm/s"}, {"measurement": "E/e′ change from baseline to 24 h (primary endpoint)", "setting": "mean ± standard deviation", "value": "−4.55 ± 4.75"}, {"measurement": "E/e′ change from baseline to 24 h (primary endpoint)", "setting": "mean ± standard deviation, listed as istaroxime", "value": "−4.55±4.75"}, {"measurement": "E/A ratio change at 24 h", "setting": "[1]", "value": "−0.64 ± 0.79"}, {"measurement": "LV ejection fraction change at 24 h", "setting": "[1]", "value": "3.03 ± 4.04", "unit": "%"}, {"measurement": "LV end-diastolic volume index change at 24 h", "setting": "[1]", "value": "−0.20 ± 5.45", "unit": "mL/m^2"}, {"measurement": "LV end-systolic volume index change at 24 h", "setting": "[1]", "value": "−3.78 ± 6.76", "unit": "mL/m^2"}, {"measurement": "Left atrial area change at 24 h", "setting": "[1]", "value": "−1.70 ± 2.46", "unit": "cm^2"}, {"measurement": "Left atrial volume index change at 24 h", "setting": "[1]", "value": "−4.32 ± 7.28", "unit": "mL/m^2"}, {"measurement": "Stroke volume index change at 24 h", "setting": "[1]", "value": "5.33 ± 6.67", "unit": "mL/beat/m^2"}, {"measurement": "S′ change at 24 h", "setting": "[1]", "value": "0.68 ± 0.91", "unit": "cm/s"}]}]}
